# Measurements reported in ChEMBL document CHEMBL1147014, “Synthesis and biological evaluation of a novel structural type of serotonin 5-HT3 receptor antagonists” (Bioorg Med Chem Lett, 2006).
# Target: T1, 5-hydroxytryptamine receptor 3A (Cavia porcellus, UniProt O70212)
# T1 sequence (O70212 whole entry): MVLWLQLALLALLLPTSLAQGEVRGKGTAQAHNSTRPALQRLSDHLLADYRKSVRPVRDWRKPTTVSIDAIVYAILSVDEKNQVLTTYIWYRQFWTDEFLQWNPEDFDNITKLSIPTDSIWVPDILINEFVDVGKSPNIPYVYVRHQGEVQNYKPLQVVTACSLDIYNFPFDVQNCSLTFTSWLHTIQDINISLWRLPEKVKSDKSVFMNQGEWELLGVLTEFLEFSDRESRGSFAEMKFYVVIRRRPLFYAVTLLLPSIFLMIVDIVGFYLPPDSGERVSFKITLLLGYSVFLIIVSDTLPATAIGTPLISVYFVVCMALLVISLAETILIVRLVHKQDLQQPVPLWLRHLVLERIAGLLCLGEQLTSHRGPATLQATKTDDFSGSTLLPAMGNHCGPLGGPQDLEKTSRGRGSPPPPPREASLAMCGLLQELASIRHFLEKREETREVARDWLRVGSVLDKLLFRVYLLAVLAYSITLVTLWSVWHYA
# Test: Antagonist effect against 2-methyl-5-HT activity at 5-HT3 receptor in longitudinal muscle myenteric plexus from guinea pig ileum
# Type: functional, tissue-based
# Settings: read-out: pA2 (converted)
row,Kb,Structure (SMILES)
1,398 µM,CCOc1nc2ccccc2nc1C(=O)Nc1ccc(O)c(CN2CCNCC2)c1
2,1000 µM,COc1nc2ccccc2nc1C(=O)Nc1ccc(O)c(CN2CCOCC2)c1
3,126 µM,COc1nc2ccccc2nc1C(=O)Nc1ccc(O)c(CN2CCCC2)c1
4,316 µM,COc1nc2ccccc2nc1C(=O)Nc1ccc(O)c(CN2CCCCC2)c1
5,15.8 µM,COc1nc2ccccc2nc1C(=O)Nc1cc(CN2CCN(C)CC2)c(O)c(N2CCN(C)CC2)c1
6,79.4 µM,CCN1CCN(Cc2cc(NC(=O)c3nc4ccccc4nc3OC)cc(N3CCN(CC)CC3)c2O)CC1
7,31.6 µM,COc1nc2ccccc2nc1C(=O)Nc1ccc(O)c(CN2CCNCC2)c1
8,2 µM,COc1nc2ccccc2nc1C(=O)Nc1ccc(O)c(CN2CCN(C)CC2)c1
9,794 µM,CCOc1nc2ccccc2nc1C(=O)Nc1ccc(O)c(CN2CCCCC2)c1
10,100 µM,COc1nc2ccccc2nc1C(=O)Nc1cc(CN2CCNCC2)c(O)c(N2CCNCC2)c1
11,25.1 µM,CCOc1nc2ccccc2nc1C(=O)Nc1ccc(O)c(CN2CCN(C)CC2)c1
12,126 µM,CCOc1nc2ccccc2nc1C(=O)Nc1ccc(O)c(CN2CCN(CC)CC2)c1
13,316 µM,CCOc1nc2ccccc2nc1C(=O)Nc1ccc(O)c(CN2CCCC2)c1
14,12.6 µM,CCN1CCN(Cc2cc(NC(=O)c3nc4ccccc4nc3OC)ccc2O)CC1

row,Structure (SMILES),Kb
1,CCOc1nc2ccccc2nc1C(=O)Nc1cc(CN2CCNCC2)c(O)c(N2CCNCC2)c1,> 1000 µM
2,CCOc1nc2ccccc2nc1C(=O)Nc1cc(CN2CCCC2)c(O)c(N2CCCC2)c1,> 1000 µM
3,COc1nc2ccccc2nc1C(=O)Nc1cc(CN2CCOCC2)c(O)c(N2CCOCC2)c1,> 1000 µM
4,CCOc1nc2ccccc2nc1C(=O)Nc1cc(CN2CCN(CC)CC2)c(O)c(N2CCN(CC)CC2)c1,> 1000 µM
5,CCOc1nc2ccccc2nc1C(=O)Nc1cc(CN2CCN(C)CC2)c(O)c(N2CCN(C)CC2)c1,> 1000 µM
6,CCOc1nc2ccccc2nc1C(=O)Nc1cc(CN2CCOCC2)c(O)c(N2CCOCC2)c1,> 1000 µM
7,CCOc1nc2ccccc2nc1C(=O)Nc1ccc(O)c(CN2CCOCC2)c1,> 1000 µM
8,COc1nc2ccccc2nc1C(=O)Nc1cc(CN2CCCC2)c(O)c(N2CCCC2)c1,> 1000 µM
